Results reported in patent US12157746B2, “Tetrahydro-1H-pyrazino[2,1-a]isoindolylquinoline compounds for the treatment of autoimmune disease” (F. HOFFMANN-LA ROCHE AG, priority 2018, dated 2024).

What follows are molecules tested against T1, human TLR8 (Homo sapiens, UniProt Q9NR97) (assay: HEK293-Blue-hTLR-8 cells assay). Conditions: HEK293-Blue-hTLR8 cells, R848 stimulation, 20 hrs, SEAP reporter; read-out: HEK/hTLR8 IC50.
T1 sequence (Q9NR97 27-1041): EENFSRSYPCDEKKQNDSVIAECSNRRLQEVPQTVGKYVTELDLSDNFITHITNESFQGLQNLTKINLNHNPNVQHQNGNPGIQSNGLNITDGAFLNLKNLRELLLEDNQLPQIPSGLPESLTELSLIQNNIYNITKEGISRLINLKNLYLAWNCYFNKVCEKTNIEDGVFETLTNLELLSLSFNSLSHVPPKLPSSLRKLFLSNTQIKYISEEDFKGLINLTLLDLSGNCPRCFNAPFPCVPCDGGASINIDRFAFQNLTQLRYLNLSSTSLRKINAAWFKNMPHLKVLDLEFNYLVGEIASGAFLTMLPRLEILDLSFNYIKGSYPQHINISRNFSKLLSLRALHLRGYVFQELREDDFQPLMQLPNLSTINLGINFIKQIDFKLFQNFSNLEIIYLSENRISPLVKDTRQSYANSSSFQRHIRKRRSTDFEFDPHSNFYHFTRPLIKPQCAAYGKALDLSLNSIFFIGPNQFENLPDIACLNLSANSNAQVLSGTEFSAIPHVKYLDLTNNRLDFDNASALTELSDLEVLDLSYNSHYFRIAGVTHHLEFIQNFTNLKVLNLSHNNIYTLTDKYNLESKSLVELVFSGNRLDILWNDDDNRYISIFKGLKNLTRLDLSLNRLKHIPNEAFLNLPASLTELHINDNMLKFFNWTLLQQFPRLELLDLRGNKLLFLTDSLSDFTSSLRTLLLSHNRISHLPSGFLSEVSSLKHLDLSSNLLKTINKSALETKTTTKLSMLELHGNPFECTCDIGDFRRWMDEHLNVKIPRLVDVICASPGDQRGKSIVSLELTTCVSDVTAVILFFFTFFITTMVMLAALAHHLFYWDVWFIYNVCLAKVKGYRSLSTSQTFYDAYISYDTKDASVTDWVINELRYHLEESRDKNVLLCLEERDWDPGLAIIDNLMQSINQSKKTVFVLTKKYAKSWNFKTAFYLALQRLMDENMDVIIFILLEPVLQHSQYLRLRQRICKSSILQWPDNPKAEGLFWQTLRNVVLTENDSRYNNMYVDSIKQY
Format: cell-based
How it was run: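 Antagonism read out in HEK293-Blue-hTLR8 cells carrying an NF-κB/AP-1-driven SEAP reporter, stimulated with R848 (10 μL of 60 uM stock added) alongside serially diluted compound (1% DMSO), 20 h at 37° C. Supernatant SEAP measured with QUANTI-Blue after 2 h at 37° C, absorbance at 620-655 nm.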
An IC50 of less than 3.2 nM was found for C[C@@H]1CN(c2ccc(C(F)(F)F)c3nccnc23)C[C@@H]2c3ccc(N[C@H]4CNC[C@H]4F)cc3CN12 [Example 77, (4R,10bS)—N-[(3S,4R)-4-fluoropyrrolidin-3-yl]-4-methyl-2-[8-(trifluoromethyl)quinoxalin-5-yl]-3,4,6,10b-tetrahydro-1H-pyrazino[2,1-a]isoindol-8-amine] in this work. An IC50 of 0.4 nM was found for C[C@@H]1CN(c2ccc(C#N)c3ncsc23)C[C@@H]2c3ccc(N[C@H]4CNC[C@H]4F)cc3CN12 [Example 78, 7-[(4R,10bS)-8-[[(3S,4R)-4-fluoropyrrolidin-3-yl]amino]-4-methyl-3,4,6,10b-tetrahydro-1H-pyrazino[2,1-a]isoindol-2-yl]-1,3-benzothiazole-4-carbonitrile] in this work. An IC50 of 2.8 nM was found for C[C@@H]1CN(c2ccc(Cl)c3ncccc23)C[C@@H]2c3ccc(N[C@H]4CNC[C@H]4F)cc3CN12 [Example 79, (4R,10b)-2-(8-chloro-5-quinolyl)-N-[(3S,4R)-4-fluoropyrrolidin-3-yl]-4-methyl-3,4,6,10b-tetrahydro-1H-pyrazino[2,1-a]isoindol-8-amine] in this work. An IC50 of less than 3.2 nM was found for C[C@@H]1CN(c2ccc(C#N)c3ncccc23)C[C@@H]2c3cccc(NCCN4CC[C@H](O)C4)c3CN12 [Example 80, 5-[(4R,10bS)-7-[2-[(3S)-3-hydroxypyrrolidin-1-yl]ethylamino]-4-methyl-3,4,6,10b-tetrahydro-1H-pyrazino[2,1-a]isoindol-2-yl]quinoline-8-carbonitrile] in this work. An IC50 of less than 3.2 nM was found for C[C@@H]1CN(c2ccc(C#N)c3ncccc23)C[C@@H]2c3cccc(N[C@H]4CNC[C@H]4F)c3CN12 [Example 81, 5-[(4R,10bS)-7-[[(3S,4R)-4-fluoropyrrolidin-3-yl]amino]-4-methyl-3,4,6,10b-tetrahydro-1H-pyrazino[2,1-a]isoindol-2-yl]quinoline-8-carbonitrile] in this work. An IC50 of 1 nM was found for C[C@@H]1CN(c2ccc(C#N)c3ncccc23)C[C@@H]2c3cc(F)c(N4C[C@H](N)[C@@](C)(O)C4)cc3CN12 [Example 83, 5-[(4R,10bS)-8-[(3S,4S)-4-amino-3-hydroxy-3-methyl-pyrrolidin-1-yl]-9-fluoro-4-methyl-3,4,6,10b-tetrahydro-1H-pyrazino[2,1-a]isoindol-2-yl]quinoline-8-carbonitrile] in this work. An IC50 of 1.3 nM was found for C[C@@H]1CN(c2ccc(C#N)c3ncccc23)C[C@@H]2c3cc(F)c(N4CC5(CNC5)C4)cc3CN12 [Example 84, 5-[(4R,10bS)-8-(2,6-diazaspiro[3.3]heptan-2-yl)-9-fluoro-4-methyl-3,4,6,10b-tetrahydro-1H-pyrazino[2,1-a]isoindol-2-yl]quinoline-8-carbonitrile] in this work. An IC50 of 9.2 nM was found for C[C@@H]1CN(c2ccc(C#N)c3ncccc23)C[C@@H]2c3cc(F)c(N4CC5CNCC(C4)O5)cc3CN12 [Example 85, 5-[(4R,10bS)-9-fluoro-4-methyl-8-(9-oxa-3,7-diazabicyclo[3.3.1]nonan-3-yl)-3,4,6,10b-tetrahydro-1H-pyrazino[2,1-a]isoindol-2-yl]quinoline-8-carbonitrile] in this work. An IC50 of 0.7 nM was found for C[C@@H]1CN(c2ccc(C#N)c3ncccc23)C[C@@H]2c3ccc(C(=O)N4CCC(C)(N)CC4)cc3CN12 [Example 88, 5-[(4R,10bS)-8-(4-amino-4-methyl-piperidine-1-carbonyl)-4-methyl-3,4,6,10b-tetrahydro-1H-pyrazino[2,1-a]isoindol-2-yl]quinoline-8-carbonitrile] in this work. An IC50 of less than 0.3 nM was found for [2H]c1ccc2c(N3C[C@@H](C)N4Cc5cc(N6CC7(CNCCO7)C6)ccc5[C@H]4C3)ccc(C#N)c2n1 [Example 90, 5-[(4R,10bS)-4-methyl-8-(5-oxa-2,8-diazaspiro[3.5]nonan-2-yl)-3,4,6,10b-tetrahydro-1H-pyrazino[2,1-a]isoindol-2-yl]-2-deuterio-quinoline-8-carbonitrile] in this work.
